Experimental data reported in ChEMBL document CHEMBL1201862, “PubChem BioAssay data set” (2004).
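Test compounds were applied to cells in 96-well plates for 48 hours at 5 doses. Here, GI50 denotes the concentration required for 50% inhibition of growth.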 Calls of active or inactive are those of the source. Cut-off read from the data, not from the text of the source: active = GI50 up to about 1.1 µM and inactive = higher.

Key:
Test in all cases: NCI anticancer screen, dose series, 48 h
CCRF-CEM = tested on: CCRF-CEM
EKVX = tested on: EKVX
HCC 2998 = tested on: HCC 2998
HOP-62 = tested on: HOP-62
IGROV-1 = tested on: IGROV-1
LOX IMVI = tested on: LOX IMVI
MOLT-4 = tested on: MOLT-4
NCI-H23 = tested on: NCI-H23
RPMI-8226 = tested on: RPMI-8226
RXF 393 = tested on: RXF 393
SF-268 = tested on: SF-268
SK-MEL-5 = tested on: SK-MEL-5
SNB-19 = tested on: SNB-19
SNB-75 = tested on: SNB-75
UO-31 = tested on: UO-31
HCT-15 = tested on: HCT-15
SR = tested on: SR

| Compound | GI50 (CCRF-CEM) | GI50 (EKVX) | GI50 (HCC 2998) | GI50 (HOP-62) | GI50 (IGROV-1) | GI50 (LOX IMVI) | GI50 (MOLT-4) | GI50 (NCI-H23) | GI50 (RPMI-8226) | GI50 (RXF 393) | GI50 (SF-268) | GI50 (SK-MEL-5) | GI50 (SNB-19) | GI50 (SNB-75) | GI50 (UO-31) | GI50 (HCT-15) [µM] | GI50 (SR) |
| --- | --- | --- | --- | --- | --- | --- | --- | --- | --- | --- | --- | --- | --- | --- | --- | --- | --- |
| O=C(/C=C1/NC(=O)CS1)Nc1ccccc1 | > 100 µM (inactive) | > 100 µM (inactive) | > 100 µM (inactive) | > 100 µM (inactive) | > 100 µM (inactive) | > 10 µM (inactive) | > 100 µM (inactive) | > 100 µM (inactive) | > 100 µM (inactive) | > 100 µM (inactive) | > 100 µM (inactive) | > 100 µM (inactive) | > 100 µM (inactive) | 50 µM (inactive) | > 100 µM (inactive) | – | – |
| CC(=O)NC(ON1C(=O)COc2ccccc21)C(Cl)(Cl)Cl (configuration not stated) | – | – | > 100 µM (inactive) | > 100 µM (inactive) | > 100 µM (inactive) | > 100 µM (inactive) | > 100 µM (inactive) | > 100 µM (inactive) | > 100 µM (inactive) | – | > 100 µM (inactive) | – | > 100 µM (inactive) | > 100 µM (inactive) | > 100 µM (inactive) | > 100 | > 100 µM (inactive) |
| CCN(CC)c1ccc(/N=C2/C=CC(=C(C#N)C#N)c3ccccc32)c(C)c1 | 1.18 µM (inactive) | 3.21 µM (inactive) | – | 2.2 µM (inactive) | 2.73 µM (inactive) | 1.72 µM (inactive) | 1.96 µM (inactive) | 1.58 µM (inactive) | 1.38 µM (inactive) | 1.08 µM (active) | – | 1.58 µM (inactive) | 3.78 µM (inactive) | 1.33 µM (inactive) | 2.29 µM (inactive) | 2.15 | – |
| Nc1ccc(C(=O)N/C(=C\c2cccc([N+](=O)[O-])c2)c2nc3cc(Cl)ccc3[nH]2)cc1 | > 100 µM (inactive) | > 100 µM (inactive) | > 100 µM (inactive) | – | > 100 µM (inactive) | – | > 100 µM (inactive) | > 100 µM (inactive) | – | > 100 µM (inactive) | 97.7 µM (inactive) | > 100 µM (inactive) | > 100 µM (inactive) | – | 36.1 µM (inactive) | > 100 | > 100 µM (inactive) |
| C=CCN(N=O)C(=O)N(CCCC(NC(C)=O)C(=O)NCc1ccccc1)Cc1ccccc1 (configuration not stated) | 28.2 µM (inactive) | 58.2 µM (inactive) | – | > 100 µM (inactive) | > 100 µM (inactive) | 46.9 µM (inactive) | 16.9 µM (inactive) | > 100 µM (inactive) | 18.2 µM (inactive) | 42.2 µM (inactive) | 62.2 µM (inactive) | 31.1 µM (inactive) | 82.6 µM (inactive) | 39 µM (inactive) | 33.1 µM (inactive) | 73.8 | – |
| CSc1nc(-c2ccccc2)nc(N2CCOCC2)[s+]1 | 22.3 µM (inactive) | > 100 µM (inactive) | > 100 µM (inactive) | > 100 µM (inactive) | > 100 µM (inactive) | 43 µM (inactive) | 26.8 µM (inactive) | > 100 µM (inactive) | – | 21.3 µM (inactive) | > 100 µM (inactive) | > 100 µM (inactive) | > 100 µM (inactive) | > 100 µM (inactive) | > 100 µM (inactive) | 37.8 | 16.6 µM (inactive) |
| CC1(C)OC(COCCOCCCCCO)C(COCCOCCCCCO)O1 (configuration not stated) | – | > 100 µM (inactive) | > 100 µM (inactive) | > 100 µM (inactive) | > 100 µM (inactive) | > 100 µM (inactive) | > 100 µM (inactive) | > 100 µM (inactive) | > 100 µM (inactive) | > 100 µM (inactive) | > 100 µM (inactive) | > 100 µM (inactive) | > 100 µM (inactive) | > 100 µM (inactive) | > 100 µM (inactive) | > 100 | > 100 µM (inactive) |
| Cc1ccccc1NC(=O)Cc1nc2ccccc2s1 | 9.51 µM (inactive) | 19.7 µM (inactive) | 34 µM (inactive) | > 10 µM (inactive) | > 10 µM (inactive) | 16.7 µM (inactive) | 17.9 µM (inactive) | 14.7 µM (inactive) | – | 18.9 µM (inactive) | 17 µM (inactive) | 51.2 µM (inactive) | 29.7 µM (inactive) | 61 µM (inactive) | 11.5 µM (inactive) | – | 13.1 µM (inactive) |
| CCOc1ccc(/N=C/c2cccc3cccnc23)cc1 | 62.5 µM (inactive) | > 100 µM (inactive) | > 100 µM (inactive) | > 100 µM (inactive) | > 100 µM (inactive) | – | 45.3 µM (inactive) | > 100 µM (inactive) | 30.3 µM (inactive) | > 100 µM (inactive) | > 100 µM (inactive) | > 100 µM (inactive) | > 100 µM (inactive) | > 100 µM (inactive) | – | 38.2 | – |
| Cc1cc2c(c(C(=O)O)c1C)-c1cccc(Cl)c1C2=O | > 100 µM (inactive) | > 100 µM (inactive) | > 100 µM (inactive) | > 100 µM (inactive) | > 100 µM (inactive) | > 100 µM (inactive) | > 100 µM (inactive) | > 100 µM (inactive) | > 100 µM (inactive) | > 100 µM (inactive) | > 100 µM (inactive) | > 100 µM (inactive) | > 100 µM (inactive) | > 100 µM (inactive) | > 100 µM (inactive) | > 100 | – |
| COc1ccc2c(c1)[n+]([O-])c(-c1ccc(Br)cc1)c(N)[n+]2[O-] | 50.4 µM (inactive) | 51.1 µM (inactive) | – | 88.3 µM (inactive) | 43.8 µM (inactive) | – | 36.8 µM (inactive) | 22.4 µM (inactive) | – | 34.6 µM (inactive) | 39.4 µM (inactive) | 17.7 µM (inactive) | > 100 µM (inactive) | 63.1 µM (inactive) | 80.2 µM (inactive) | – | 36.6 µM (inactive) |
| COc1ccc(C(C#N)NNC(=O)Cc2ccccc2)cc1OC (configuration not stated) | > 100 µM (inactive) | – | – | > 100 µM (inactive) | > 100 µM (inactive) | > 100 µM (inactive) | > 100 µM (inactive) | > 100 µM (inactive) | > 100 µM (inactive) | > 100 µM (inactive) | > 100 µM (inactive) | > 100 µM (inactive) | – | 39.9 µM (inactive) | > 100 µM (inactive) | > 100 | > 100 µM (inactive) |
| Cc1cc(Cl)ccc1NC(=O)CCCC(=O)C1CCC/C1=N\NC(=O)CC#N (configuration not stated) | > 100 µM (inactive) | > 100 µM (inactive) | – | – | > 100 µM (inactive) | – | > 100 µM (inactive) | > 100 µM (inactive) | 75.3 µM (inactive) | – | > 100 µM (inactive) | > 100 µM (inactive) | > 100 µM (inactive) | > 100 µM (inactive) | > 100 µM (inactive) | > 100 | – |
| COC(=O)c1ccc(C(=O)OC)c2nc3cc(C)ccc3nc12 | > 100 µM (inactive) | > 100 µM (inactive) | > 100 µM (inactive) | > 100 µM (inactive) | > 100 µM (inactive) | > 100 µM (inactive) | > 100 µM (inactive) | > 100 µM (inactive) | > 100 µM (inactive) | – | > 100 µM (inactive) | > 100 µM (inactive) | > 100 µM (inactive) | > 100 µM (inactive) | > 100 µM (inactive) | > 100 | – |
| CCOC(=O)C(=O)Nc1c(C)cccc1C(C)C | > 100 µM (inactive) | > 100 µM (inactive) | – | > 100 µM (inactive) | > 100 µM (inactive) | – | > 100 µM (inactive) | > 100 µM (inactive) | > 100 µM (inactive) | – | > 100 µM (inactive) | > 100 µM (inactive) | > 100 µM (inactive) | 51.2 µM (inactive) | > 100 µM (inactive) | > 100 | > 100 µM (inactive) |
| CC1CC(c2ccccc2)=Nc2ccccc2S1(=O)=O (configuration not stated) | 19.7 µM (inactive) | 20.4 µM (inactive) | 5.2 µM (inactive) | 20.3 µM (inactive) | 17.7 µM (inactive) | 17.3 µM (inactive) | 16.8 µM (inactive) | 16.6 µM (inactive) | 2.16 µM (inactive) | 15.3 µM (inactive) | 16.9 µM (inactive) | 17.9 µM (inactive) | 14.3 µM (inactive) | 19.2 µM (inactive) | 15.6 µM (inactive) | 24.1 | – |
| COC(=O)/C(=N\NC(N)=O)C(C(=O)C=C(C)C)C(=O)C(=O)Nc1ccc(Cl)c(Cl)c1 (configuration not stated) | > 100 µM (inactive) | > 100 µM (inactive) | > 100 µM (inactive) | > 100 µM (inactive) | > 100 µM (inactive) | > 100 µM (inactive) | > 100 µM (inactive) | > 100 µM (inactive) | – | > 100 µM (inactive) | > 100 µM (inactive) | > 100 µM (inactive) | > 100 µM (inactive) | > 100 µM (inactive) | > 100 µM (inactive) | > 100 | > 100 µM (inactive) |
| CCCCCC(=O)OCCOCCOCCOCCOCCOCc1ccccc1 | – | > 100 µM (inactive) | – | > 100 µM (inactive) | > 100 µM (inactive) | > 100 µM (inactive) | – | > 100 µM (inactive) | – | > 100 µM (inactive) | > 100 µM (inactive) | > 100 µM (inactive) | > 100 µM (inactive) | – | – | > 100 | – |
| c1ccc2c(c1)Sc1ccccc1N2C1CN2CCC1CC2 (configuration not stated) | 16.5 µM (inactive) | 13 µM (inactive) | 14.5 µM (inactive) | 12.9 µM (inactive) | 18.9 µM (inactive) | 10.9 µM (inactive) | 12.8 µM (inactive) | 24.5 µM (inactive) | 23.1 µM (inactive) | – | 16.4 µM (inactive) | 15.6 µM (inactive) | 18.8 µM (inactive) | 6 µM (inactive) | 16.7 µM (inactive) | 16.8 | – |
